Measured values from ChEMBL document CHEMBL5727462, “Benzimidazole derivates useful as inhibitors of mammalian histone deacetylase activity” (2019).

Target: T1, Protein deacetylase HDAC6 (Homo sapiens, UniProt Q9UBN7)
T1 sequence (Q9UBN7 whole entry): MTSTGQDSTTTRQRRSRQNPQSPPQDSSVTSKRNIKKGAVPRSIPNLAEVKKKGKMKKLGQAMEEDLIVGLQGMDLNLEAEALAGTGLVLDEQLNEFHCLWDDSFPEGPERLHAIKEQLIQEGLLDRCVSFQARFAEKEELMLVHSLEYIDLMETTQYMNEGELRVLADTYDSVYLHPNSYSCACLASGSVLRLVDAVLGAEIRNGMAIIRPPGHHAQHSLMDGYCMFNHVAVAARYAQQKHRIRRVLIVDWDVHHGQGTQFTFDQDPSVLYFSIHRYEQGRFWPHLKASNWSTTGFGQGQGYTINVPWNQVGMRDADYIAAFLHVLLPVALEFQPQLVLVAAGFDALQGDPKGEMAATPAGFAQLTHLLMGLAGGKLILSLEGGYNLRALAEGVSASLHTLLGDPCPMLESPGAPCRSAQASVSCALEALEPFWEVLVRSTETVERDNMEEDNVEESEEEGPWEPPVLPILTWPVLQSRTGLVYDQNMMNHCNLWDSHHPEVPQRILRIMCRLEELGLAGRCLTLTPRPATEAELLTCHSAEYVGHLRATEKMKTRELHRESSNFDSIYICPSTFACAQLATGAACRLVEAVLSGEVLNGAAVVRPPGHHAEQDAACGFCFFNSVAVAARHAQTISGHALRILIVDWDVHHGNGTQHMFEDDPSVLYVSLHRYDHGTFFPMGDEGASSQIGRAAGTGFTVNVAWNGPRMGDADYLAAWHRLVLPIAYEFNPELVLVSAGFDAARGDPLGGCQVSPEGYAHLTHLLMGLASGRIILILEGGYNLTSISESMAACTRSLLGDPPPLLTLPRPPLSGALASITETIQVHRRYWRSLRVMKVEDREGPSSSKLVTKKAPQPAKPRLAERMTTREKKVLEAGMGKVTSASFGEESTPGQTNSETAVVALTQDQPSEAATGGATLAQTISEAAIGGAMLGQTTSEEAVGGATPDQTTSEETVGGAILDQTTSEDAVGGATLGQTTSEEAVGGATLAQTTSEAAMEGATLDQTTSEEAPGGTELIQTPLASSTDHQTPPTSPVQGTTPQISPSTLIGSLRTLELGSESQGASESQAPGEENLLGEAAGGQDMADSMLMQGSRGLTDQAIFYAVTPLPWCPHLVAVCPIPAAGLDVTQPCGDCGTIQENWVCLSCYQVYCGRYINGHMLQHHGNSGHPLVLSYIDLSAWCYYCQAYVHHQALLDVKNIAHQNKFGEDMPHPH
Test: In vitro enzymatic HDACs assays: All Examples were tested in HDAC1, 2, 3, 6 and 8 in vitro enzymatic assays. The assay principle is well known (Hauser et al. 2009, Bradner et al. 2010) and all necessary reagents like enzymes, substrates, developer and reference compounds are commercially available (see e.g. BPS Biosciences http://www.bpsbioscience.com/). A series of dilutions of the compounds were prepared with a top concentration of 200 μM (2 μM for HDAC6). The enzymatic reactions were conducted in a mixture containing assay buffer, bovine serum albumin, HDAC substrate, and a test compound. After enzymatic reaction, developer was added and after an additional incubation time, fluorescence intensity was measured at an excitation wavelength of 360 nm and an emission wavelength of 460 nm. A selection of the Examples were tested in a full HDAC panel containing HDAC1, 2, 3, 4, 5, 6, 7, 8, 9, 10 and 11 in vitro enzymatic assays. The tests were performed as above except that a series of dilutions of the compounds were prepared with a top concentration of 10 μM for all HDACs.

Molecule `O=C(NO)c1ccc2nc(-c3ccc(-c4ccccc4)c(F)c3)[nH]c2c1` has an IC50 of 19 nM.
